Reference: US8772500B2, “TRPV3 modulators” (AbbVie Inc., priority 2011, dated 2014)

Columns and labels:
human TRPV3 = target: T1, human TRPV3 (Homo sapiens, UniProt Q8NET8); assay: In vitro antagonism of recombinant human TRPV3 activation (FLIPR Tetra calcium assay, 2-APB as agonist); assay type: cell-based; conditions: HEK293 cells stably expressing human TRPV3; 2-APB 80 μM; range class; read-out: IC50 (reported range)
T1 construct: expressed in transfected cells
T1 sequence (Q8NET8 1-790): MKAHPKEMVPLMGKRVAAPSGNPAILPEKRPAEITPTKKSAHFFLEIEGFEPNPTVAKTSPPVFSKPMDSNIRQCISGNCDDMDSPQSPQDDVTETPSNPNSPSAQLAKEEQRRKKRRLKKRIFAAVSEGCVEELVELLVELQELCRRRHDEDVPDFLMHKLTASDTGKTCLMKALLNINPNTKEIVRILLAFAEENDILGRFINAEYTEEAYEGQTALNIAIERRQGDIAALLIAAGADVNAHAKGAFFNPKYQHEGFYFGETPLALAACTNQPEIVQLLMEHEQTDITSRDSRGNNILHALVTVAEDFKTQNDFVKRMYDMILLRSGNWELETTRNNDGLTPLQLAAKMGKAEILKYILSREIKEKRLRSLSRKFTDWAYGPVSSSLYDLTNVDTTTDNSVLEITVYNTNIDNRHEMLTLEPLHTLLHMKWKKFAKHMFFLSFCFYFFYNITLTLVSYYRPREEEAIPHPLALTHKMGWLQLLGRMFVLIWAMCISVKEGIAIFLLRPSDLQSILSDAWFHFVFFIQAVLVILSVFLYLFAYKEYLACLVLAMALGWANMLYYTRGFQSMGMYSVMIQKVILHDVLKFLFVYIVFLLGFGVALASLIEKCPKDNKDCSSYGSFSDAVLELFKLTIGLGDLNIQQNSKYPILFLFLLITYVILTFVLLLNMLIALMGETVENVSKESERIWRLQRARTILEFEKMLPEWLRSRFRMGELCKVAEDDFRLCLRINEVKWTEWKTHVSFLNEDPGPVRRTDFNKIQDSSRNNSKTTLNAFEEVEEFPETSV
Outline: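 HEK293 cells stably expressing human TRPV3, loaded with Calcium-4 dye for 90-120 min; compound added 3 min before 2-APB at 80 μM (its EC80). Fluorescence (max minus min) over 10 min expressed as % of maximal 2-APB response without antagonist; IC50 mostly averaged from n≧2 runs.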

[1] = In vitro rat microsomal stability assay; assay type: in vitro ADME, rat (Sprague-Dawley)
Outline: (§1)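 Liver microsomes: Sprague-Dawley rat for rat assay, human for human assay; 37 °C; NADPH cofactor, also spiked into time-zero plates.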

[2] = In vitro human microsomal stability assay; assay type: in vitro ADME
Outline: as §1

[3] = Sprague-Dawley, rat, 0.5 h, 0.5 μM, pH 7.4
[4] = 0.5 μM substrate, 0.25 mg/mL microsomal protein, pH 7.4, 37° C., NADPH, 30 minutes

| Structure (SMILES) | IC50 (human TRPV3) | RAT MICROSOMAL STABILITY (% REMAINING AFTER 30 MINUTES) [1, 3] | HUMAN MICROSOMAL STABILITY (% REMAINING AFTER 30 MINUTES) ([2]; human, 0.5 h, 0.5 μM, pH 7.4) | RAT MICROSOMAL STABILITY (% REMAINING AFTER 30 MINUTES) [1, 4] | HUMAN MICROSOMAL STABILITY (% REMAINING AFTER 30 MINUTES) [2, 4] |
| --- | --- | --- | --- | --- | --- |
| OC1CC(c2ccc(Cl)c(Cl)c2)(C(O)c2ccccn2)C1 (single isomer, unassigned) [Example 118] | 50 to 500 nM | 74% | >85% | – | – |
| Nc1cccnc1C(O)C1(c2ccc(Cl)c(Cl)c2)CCC1 (stereo not drawn) [Example 130, (3-aminopyridin-2-yl) [1-(3,4-dichlorophenyl)cyclobutyl]methanol] | 1100 to 5000 nM | <0.01% | 4.0% | – | – |
| Cc1ccccc1CC1(C(O)c2ccccn2)CCC1 (stereo not drawn) [Example 253, [1-(2-methylbenzyl)cyclobutyl](pyridin-2-yl)methanol] | 1100 to 5000 nM | 0.017% | 0.21% | – | – |
| OC1CC(c2cncc(C(F)(F)F)c2)(C(O)c2ccccn2)C1 [Example 303, cis-3-[(S)-hydroxy(pyridin-2-yl)methyl]-3-[5-(trifluoromethyl)pyridin-3-yl]-cyclobutanol] | 501 to 1000 nM | 32% | 80% | – | – |
| OC(c1ccccn1)C1(c2ccc(F)c(F)c2)CCCO1 (stereo not drawn) [Example 109, (syn)-[2-(3,4-difluorophenyl)tetrahydrofuran-2-yl](pyridin-2-yl)methanol] | 5100 to 20000 nM | 0.74% | 45% | – | – |
| O[C@H](c1ccccn1)C1(c2ccnc(C(F)(F)F)c2)CCC1 [Example 240, (S)-pyridin-2-yl{1-[2-(trifluoromethyl)pyridin-4-yl]cyclobutyl}methanol] | 501 to 1000 nM | 38% | 50% | – | – |
| ON=C1CC(c2ccc(OC(F)(F)F)cc2)([C@H](O)c2ccccn2)C1 (stereo partly drawn) [Example 248, (S)-{3-(hydroxyimino)-1-[4-(trifluoromethoxy)phenyl]cyclobutyl}(pyridin-2-yl)methanol] | 1100 to 5000 nM | 29% | 70% | – | – |
| N[C@H]1CCC[C@@H]1[C@H](O)C1(c2ccc(Cl)cc2)CCC1 [Example 225, (S)-[(1S,2S)-2-aminocyclopentyl][1-(4-chlorophenyl)cyclobutyl]methanol] | 1100 to 5000 nM | 34% | >85% | – | – |
| OC(c1ccccn1)C1(c2ccc(C(F)(F)F)cn2)CC(F)(F)C1 (stereo not drawn) [Example 137, {3,3-difluoro-1-[5-(trifluoromethyl)pyridin-2-yl]cyclobutyl}(pyridin-2-yl)-methanol] | 1100 to 5000 nM | >85% | 77% | – | – |
| OC(c1ccccn1)C1(C(c2ccccc2)C(F)(F)F)CCC1 (stereo not drawn) [Example 58, pyridin-2-yl[1-(2,2,2-trifluoro-1-phenylethyl)cyclobutyl]methanol] | 1100 to 5000 nM | 33% | 36% | – | – |
| Cl.O[C@H](c1ccccn1)C1(c2ccc(Cl)c(Cl)c2)CC(F)(F)C1 [Example 111, (S)-[1-(3,4-dichlorophenyl)-3,3-difluorocyclobutyl](pyridin-2-yl)methanol hydrochloride] | 50 to 500 nM | – | – | 23% | 52% |
| CC1(O)CC(c2ccc(OC(F)(F)F)cc2)(C(O)c2ccccn2)C1 [Example 203, trans-3-[(S)-hydroxy(pyridin-2-yl)methyl]-1-methyl-3-[4-(trifluoromethoxy)-phenyl]cyclobutanol] | 5100 to 20000 nM | 74% | >85% | – | – |
| CC1(O)CC(c2ccnc(C(F)(F)F)c2)(C(O)c2ccccn2)C1 [Example 307, trans-3-[(S)-hydroxy(pyridin-2-yl)methyl]-1-methyl-3-[2-(trifluoromethyl)-pyridin-4-yl]cyclobutanol] | 5100 to 20000 nM | >85% | 73% | – | – |
